The structures appear in SMILES notation.

Data set [1] concerns C57B6J mice. The data set can be described thus: Female urine sniffing test after chronic mild unpredictable stress. To be noted: 60 minutes pre-test; for time sniffing female estrous urine: relative to vehicle. The format is in vivo. The procedure:
FIG. 2. Effect of mesembrenol (0.3, 1 and 3 mg/kg, i.p.) administered 60 minutes pre-test on preference to examine the female estrous urine treat following chronic mild unpredictable stress. Data represents total time (sec) engaged in sniffing and investigating the urine soaked cotton tip during a 3 minute trial period. Analysis by one-way ANOVA followed by multiple comparisons with Sidak's correction; **-****P<0.01-0.0001 vs stress vehicle (n=8).
FIG. 3. Effect of mesembranol (0.3, 1 and 3 mg/kg, i.p.) administered 60 minutes pre-test on preference to examine the female estrous urine treat following chronic mild unpredictable stress. Data represents total time (sec) engaged in sniffing and investigating the urine soaked cotton tip during a 3 minute trial period. Analysis by one-way ANOVA followed by multiple comparisons with Sidak's correction; **-****P<0.01-0.0001 vs stress vehicle (n=8).
(§1) C57BI6J mice, will be housed in groups of 4, will be exposed to a variety of mild stressors for a period of four weeks.
(§2) The stressors will include wet bedding, 40° cage tilt, introduction of intruder mouse from different experimental cohort, food deprivation, water deprivation, overnight illumination, and presence of soiled rat bedding as an aversive odour. These stressors are randomly scheduled over each weekly period and repeated for the duration of the experiment. Each stressor is applied for a period of 8-16 hours.
(§3) A cohort of depression-like phenotype in adult male C57B6J mice is produced by employing a four-week mild unpredictable stress protocol.
Following two weeks treatment with imipramine, or acute treatment with vehicle or the test compounds (mesembrenol and mesembranol), the reversal of stress induced depression-like behaviour was determined using a measure of anhedonia, female urine sniffing preference.
The test compounds were evaluated at three doses with comparison made to vehicle control, no stress control and the reference control imipramine (n=8). […]
Animals are subsequently transferred to individual cages and exposed for a 3 minute period to a cotton tipped applicator which is dipped in water and attached to the side of the cage. The time each animal spends sniffing the water-impregnated cotton tipped applicator is scored manually by the observer who is blinded to group treatments.
Following a 45 minute interval in the absence of a cotton tipped applicator, an applicator dipped in the urine of a female mice in oestrus is presented and the time spent sniffing the urine-impregnated cotton bud is recorded over a 3 minute period. […]
Testing is conducted under low level red light and behaviour is scored remotely via a video camera placed above the cage.

For data set [2], the target named is T1, human serotonin transporter (Homo sapiens, UniProt P31645).
T1 construct: expressed in transfected cells; host or cells: CHO cells
The data set can be described thus: SERT assay, [3H] serotonin uptake in transfected CHO cells. The format is cell-based. The conditions noted are these: CHO cells with human serotonin transporter, 180 min. The procedure: Test compounds (conc range), reference compound or vehicle control were incubated for 180 min at room temperature with CHO cells stably transfected with the human serotonin transporter (5×10^3 cells/well) with 0.15 μM [3H] serotonin in the presence or absence of the test or reference compound in buffer containing (in mM); Tris/HCl (pH 7.4) (5), HEPES/Tris (7.5), NaCl (120), KCl (5.4), CaCl2) (1.2), MgSO4 (1.2), Glucose (5) and ascorbic acid (1). Following incubation, [3H] serotonin uptake was quantified by a standard scintillation counting method.
(§4) Data were expressed as the mean of two technical replicates for each data point, and percent inhibition calculated relative to maximum inhibition observed in the presence of the reference comparator rolipram for PDE-4 assays, and imipramine for serotonin assays.

A short description of another data set: in vivo. The conditions noted are these: male, C57BI/6J, mouse, ip, 10 mg/kg.
Data set [3] has as its system C57B6J mice. The data set can be described thus: Elevated plus maze after chronic mild unpredictable stress. The format is in vivo. The method, then:
FIG. 8. Effect of mesembrenol (0.3, 1 and 3 mg/kg, i.p.) administered 30 minutes pre-test on chronic mild unpredictable stress induced anxiety phenotype in the elevated plus maze. Data represents (A) latency to open arm entry (sec), (B) number of open arm entries (a.u.) and (C) total time in open arms of the apparatus during the ten minute procedure. Analysis by one-way ANOVA followed by multiple comparisons with Dunn's and Sidak's correction; *-**** P<0.05-0.0001 vs stress vehicle (n=8).
FIG. 9. Effect of mesembranol (0.3, 1 and 3 mg/kg, i.p.) administered 30 minutes pre-test on chronic mild unpredictable stress induced anxiety phenotype in the elevated plus maze. Data represents (A) latency to open arm entry (sec), (B) number of open arm entries (a.u.) and (C) total time in open arms of the apparatus during the ten minute procedure. Analysis by one-way ANOVA followed by multiple comparisons with Dunn's and Sidak's correction; *-**** P<0.05-0.0001 vs stress vehicle (n=8).
as §1, §2, §3
Finally, the effect of the test compounds on chronic unpredictable mild stress anxiogenic phenotype in the elevated plus-maze to determine anxiolytic-like activity.
The apparatus consists of 4 raised flat runways extending from a central platform raised 1 m above the floor of a 2 m wide water maze (prevents escape in the rare event of an animal falling from the apparatus). Two arms have enclosed sides while the others are open.
The mouse version of the apparatus employs maze arms of 30 cm length and 6 cm width, where the enclosed arms have walls 30 cm high. The room is lit with low level indirect lighting.
Animals are allowed to freely explore the apparatus over a 10 minute trial with remote video analysis capturing the pattern of animal movement. The time animals spend exploring the open arms of the maze during the trial is inversely related to the level of stress/anxiety felt by the animal.
Endpoints recorded are the latency (sec) to enter open arms of the maze, total number of open arm entries (a.u.) and total time (sec) spent in the open arms of the plus-maze.

The target of data set [4] is human recombinant PDE-4D2 (Homo sapiens, UniProt Q08499). Kind of data set: PDE4-D2 assay (SPA). Type of data set: biochemical. The procedure:
Test compounds (conc range), reference compound or vehicle control were added to assay buffer containing (in mM); Tris/HCl, pH 7.4 (40), MgCl2 (8) and EGTA/NaOH (1.7), containing 450 nM cAMP (450 nM) and 0.25 μCi (PDE-4B1) or 0.0125 μCi (PDE-4D2) [^3H] CAMP. 20 mins after addition of human recombinant PDE-4B1 (1.2 IEU) or PDE-4D2 (1.5 IEU), SPA beads were added and incubated at 22° C. for a further 30 mins. [^3H]5′AMP was quantified by a standard scintillation counting method.
as §4

Setting [5] is: 3 mg/kg i.p., mesembrenol p<0.001, mesembranol p<0.01.
Setting [6] is: 3 mg/kg i.p., 30 minutes pre-test, relative to vehicle.

T1 sequence (P31645 whole entry): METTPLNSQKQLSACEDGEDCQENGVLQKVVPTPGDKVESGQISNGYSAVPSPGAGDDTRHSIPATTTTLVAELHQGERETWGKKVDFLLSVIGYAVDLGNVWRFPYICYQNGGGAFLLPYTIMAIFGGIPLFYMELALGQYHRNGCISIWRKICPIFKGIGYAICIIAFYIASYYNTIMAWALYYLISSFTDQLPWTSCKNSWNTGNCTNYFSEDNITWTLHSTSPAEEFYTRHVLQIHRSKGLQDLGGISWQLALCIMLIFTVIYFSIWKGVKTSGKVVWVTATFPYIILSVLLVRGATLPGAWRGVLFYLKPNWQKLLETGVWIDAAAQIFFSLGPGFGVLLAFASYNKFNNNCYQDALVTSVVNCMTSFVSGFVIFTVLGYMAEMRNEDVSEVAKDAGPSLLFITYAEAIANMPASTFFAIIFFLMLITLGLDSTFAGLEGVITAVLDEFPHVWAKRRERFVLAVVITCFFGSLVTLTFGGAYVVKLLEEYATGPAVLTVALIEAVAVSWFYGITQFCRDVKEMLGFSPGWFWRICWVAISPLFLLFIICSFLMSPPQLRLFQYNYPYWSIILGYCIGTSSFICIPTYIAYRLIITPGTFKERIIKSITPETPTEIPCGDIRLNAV
Sequence of human recombinant PDE-4D2 (Q08499 303-809 limits assumed): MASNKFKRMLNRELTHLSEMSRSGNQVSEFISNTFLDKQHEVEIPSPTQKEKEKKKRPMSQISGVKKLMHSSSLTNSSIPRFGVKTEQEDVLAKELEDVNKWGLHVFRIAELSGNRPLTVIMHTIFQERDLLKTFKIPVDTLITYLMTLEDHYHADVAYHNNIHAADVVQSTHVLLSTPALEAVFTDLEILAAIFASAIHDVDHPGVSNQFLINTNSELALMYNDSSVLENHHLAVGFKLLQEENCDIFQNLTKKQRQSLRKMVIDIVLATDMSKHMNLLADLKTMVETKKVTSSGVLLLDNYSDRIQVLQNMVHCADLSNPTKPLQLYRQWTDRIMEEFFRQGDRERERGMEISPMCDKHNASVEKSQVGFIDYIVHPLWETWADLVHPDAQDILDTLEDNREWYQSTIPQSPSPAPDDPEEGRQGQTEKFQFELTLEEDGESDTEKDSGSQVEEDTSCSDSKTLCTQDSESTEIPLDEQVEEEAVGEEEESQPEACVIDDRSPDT
Experimental for in vivo: Groups of male C57BI/6J mice received a single administration of test compound (10 mg/kg; i.p.) in methylcellulose (0.5% w/v).
Three mice from each dose group were subject to cardiac puncture under general anaesthesia at 0.25, 0.50, 1.00, 2.00, 4.00, 7.00 and 24.0 hours post-dose and plasma samples generated for application of standard LC-MS/MS bioanalytical methods.
Quantitation of compound concentration was derived from reference calibration data. Pharmacokinetic data were derived from serial plasma concentrations.

For orientation: IC50 means the point on the concentration scale where inhibition reaches its midpoint. As a reminder, the AUC(0-inf) is the area under the concentration-time curve extrapolated to infinity. Read a low AUC(0-inf) as low exposure. As a reminder, the Cmax is the peak of the concentration-time curve. What is called Tmax is the time from dosing to the highest level. By half-life is commonly meant how long it takes for the measured level to halve. Turning to `COc1ccc(C23CCC(O)CC2N(C)CC3)cc1OC` (stereo not drawn) [Mesembranol, 3a-(3,4-dimethoxyphenyl)-1-methyl-3,4,5,6,7,7a-hexahydro-2H-indol-6-ol], the “time sniffing female estrous urine” value with C57B6J mice [1] (setting [5]) is listed as “significant increase”. Moreover, the IC50 in data set [2] is 143 nM. Moreover, in “in vivo”, the AUC(0-inf) was determined as 649 ng·h/mL, the peak level (Cmax) was 834 ng/mL, the Tmax was 18 min and the half-life is 21.8 min. In the data set on C57B6J mice [3] (setting [6]), the “number of open arm entries” value is “significant increase” and the “time spent in the open arms” value is “significant increase”. Also, the IC50 in data set [4] was determined as 9840 nM.
`COc1ccc(C23C=CC(O)CC2N(C)CC3)cc1OC` (stereo not drawn) [Mesembrenol]: the “time sniffing female estrous urine” value in the data set on C57B6J mice [1] (1 mg/kg i.p., mesembrenol p<0.01) was “significant increase”. The “time sniffing female estrous urine” value in the data set on C57B6J mice [1] (setting [5]) was “significant increase”. The “time sniffing female estrous urine, dose response” value with C57B6J mice [1] (0.3, 1 and 3 mg/kg i.p., relative to stress vehicle) is listed as “dose dependent increase”. This compound gave an IC50 in data set [2] of 462 nM. Besides, in “in vivo”, the AUC(0-inf) came to 352 ng·h/mL, the Cmax turned out to be 503 ng/mL, the Tmax worked out at 16 min and the half-life was 26.3 min. Further, the “time spent in the open arms” value with C57B6J mice [3] (1 mg/kg i.p., 30 minutes pre-test, relative to vehicle) was “significant increase”. Also, the “time spent in the open arms” value with C57B6J mice [3] (setting [6]) is given as “significant increase”. The “number of open arm entries” value in the data set with C57B6J mice [3] (0.3, 1 and 3 mg/kg i.p., versus the vehicle group) is “no change”. The IC50 in data set [4] is 3910 nM.

The values above are taken from US20250186397A1, “COMPOUNDS FOR THE USE IN THE TREATMENT OF MOOD DISORDERS” (Kanna Health Ltd, priority 2022, published 2025).
